Data on 22 substances can be found in patent US10556936B2, “Immunogenic proteins and fragments thereof from allergenic mites” (ALK-ABELLÓ A/S, priority 2016, dated 2020).

This test concerns HDM-specific T cells expanded from PBMCs of HDM-allergic individuals. Description: T cell reactivity of peptides: IFN/IL-5 ELISPOT on in vitro expanded HDM-specific T cells. The format is cell-based, human. The note with it: for SFC/donor: individual peptides 10 μg/mL; for % responder: percentage of donors that produced a response against the peptide, 10 μg/mL. As to the method: Each sequence of an “L” cluster was aligned separately using the MEGA software tool with ClustalW. Fifteen-mer peptides overlapping by 10 amino acids were generated and the last 15-mer peptide was added when the sequence length was not divisible by 5, 14,783 unique peptides remained.
HLA class II binding predictions optimized for global coverage were performed for the seven class II alleles (HLA-DRB1*03:01, HLA-DRB1*07:01, HLA-DRB1*15:01, HLA-DRB3*01:01, HLA-DRB3*02:02, HLA-DRB4*01:01 and HLA-DRB5*01:01) using the standalone version of the IEDB class II binding prediction tool. The median consensus percentile rank was estimated from the consensus percentile ranks for the seven alleles. Further, peptides with more than ten overlapping amino acids, which appeared because several occurrences of some sequence regions were repeated multiple times in the same sequence, were eliminated (e.g. “[…]” was repeated seven times in one sequence.) Variant peptides were also removed, retaining the better peptide based on the median consensus percentile rank and conservation among the sequences within its respective cluster. Peptides with median consensus percentile rank ≤10.0 and conserved in ≥35% of sequences in the same cluster were finally selected, also including additional selected peptides chosen to maximize DRB1 allele coverage, for a grand total of 2,589 peptides.
Peptides were purchased from Mimotopes (Clayton, Victoria, Australia) or A and A (San Diego, Calif.) as crude material on a small (1-mg) scale. Individual peptides were resuspended in DMSO at a final concentration of 40 mg/mL. Peptide “megapools” of 30-65 peptides/pool were generated. Following lyophilization, each pool was reconstituted in DMSO so that each peptide was present at a concentration of 4 mg/mL. To facilitate deconvolution of positive megapools, each megapool was further broken down in 2-6 “mesopools” (259 mesopools in total), each containing 8-14 peptides. Each mesopool was then deconvoluted to identify individual positive peptides. To avoid dimerization and polymerization of peptides by intra- and intermolecular disulfide bond formation between cysteine residues, this amino acid were in some instances substituted by a serine residue in the peptides. Such peptides are herein marked with an asterisk (*).
PBMCs from European HDM-allergic individuals were recruited in the Copenhagen region (defined by clinical history of allergy to house dust mite and specific IgE to group 1 and group 2 major allergens from Der p and/or Der f and with measured specific IgE (CAP) >0.7 kU/L towards Der p/f 1 or Der p/f 2. In addition, PBMCs from 10 US HDM-allergic individuals were recruited in San Diego (defined by Der p extract IgE titers greater than 0.35 kUA/L). PBMCs were isolated from whole blood by density gradient centrifugation according to manufacturers' instructions (Ficoll-Hypaque, Amersham Biosciences, Uppsala, Sweden). Der p- and Der f-specific extract IgE titers were determined using the ImmunoCAP system (Thermo Fisher, Uppsala, Sweden). In a separate series of experiments, pooled plasma from 10 European and 10 American HDM atopic individuals from the San Diego region, respectively, was utilized to run 2D immunoblots to elucidate IgE and IgG reactivity towards the proteins, which had at least one peptide with positive T cell response.
HDM-specific T cells were expanded in vitro. Briefly, PBMCs from HDM-allergic individuals were stimulated with HDM extract (5 μg/mL) and expanded over 14-17 days with IL-2 (added every 3 days). Cells were harvested on day 14, restimulated with HDM extract (5 μg/mL), individual peptides (10 μg/mL) or peptide pools (5 μg/mL) and screened for […]/IL-5-production by ELISPOT. Criteria for positivity were 100 or 20 spot forming cells (SFCs) per 10^6 PBMCs for peptide pools or single peptides, respectively, p<0.05, and a stimulation index >2.

In the case of “LQHFNNAIKQLNTED (Immunogenic fragment) [Peptide 189, fragment of A0023 Der f]”, the SFC/donor came out at 24 SFC/donor and the “% responder” value was determined as 10%.
For “139 (ELNFKVYEDAAALAK; Immunogenic fragment) [compound 139]”, in that order: 16 SFC/donor and 10%.
For the substance “97 (NATEYWMDMFAEYHK; Immunogenic fragment) [compound 97]”, the SFC/donor turned out to be 227 SFC/donor and the “% responder” value is given as 25%.
For “70 (HSKRYLLRLEHFYQR; Immunogenic fragment) [compound 70]” the same measures were 5 SFC/donor and 5%.
For “EARENYITFTEPFMI (Immunogenic fragment) [Peptide 179, fragment of A0023 Der f/p]” the same measures were 5 SFC/donor and 5%.
For the substance “SLRGVTIRNAPFLEE (Immunogenic fragment) [Peptide 178, fragment of A0023 Der f]”, the SFC/donor worked out at 42 SFC/donor and the “% responder” value was found to be 10%.
For “131 (PRIIRFNYDEQTNIL; Immunogenic fragment) [compound 131]” the same measures were 160 SFC/donor and 25%.
Take “111 (SSMRWTIPSILNFNM; Immunogenic fragment) [compound 111]”: the SFC/donor is 19 SFC/donor and the “% responder” value was 10%.
“140 (EDGLIYNIASREKAD; Immunogenic fragment) [compound 140]”: the SFC/donor was 55 SFC/donor and the “% responder” value is 5%.
For “143 (FNTAVLFDRQGKLLG; Immunogenic fragment) [compound 143]” the same measures were 11 SFC/donor and 10%.
As to “127 (SQHLGYQTNQSIIIL; Immunogenic fragment) [compound 127]”, the SFC/donor is listed as 7 SFC/donor and the “% responder” value is reported as 10%.
For the substance “73 (TLEQWHSKRYLLRLE; Immunogenic fragment) [compound 73]”, the SFC/donor is given as 4 SFC/donor and the “% responder” value was 5%.
For “LGTLRNGATNHFLSK (Immunogenic fragment) [Peptide 183, fragment of A0023 Der f]” the same measures were 163 SFC/donor and 20%.
For “58 (ITRLREAMGVMQHHD; Immunogenic fragment) [compound 58]” the same measures were 8 SFC/donor and 5%.
For “95 (TTYTRNRAVGIPMDV; Immunogenic fragment) [compound 95]” the same measures were 77 SFC/donor and 15%.
For “79 (GNDLKNLSSKVLPNL; Immunogenic fragment) [compound 79]”, the SFC/donor is reported as 5 SFC/donor and the “% responder” value is 5%.
For “141 (KHEIFVVADLIDRKS; Immunogenic fragment) [compound 141]”, in that order: 7 SFC/donor and 5%.
For “129 (INILGVPKLPTSFKL; Immunogenic fragment) [compound 129]” the same measures were 24 SFC/donor and 20%.
For “75 (SLRHLFKSFEIIAVE; Immunogenic fragment) [compound 75]”, the SFC/donor was determined as 6 SFC/donor and the “% responder” value is 5%.
Turning to “82 (YIGYKIEKHSKNLIQ; Immunogenic fragment) [compound 82]”, the SFC/donor amounted to 4 SFC/donor and the “% responder” value is given as 5%.
With “66 (IVQEVHQQFDSFVGQ; Immunogenic fragment) [compound 66]”, the SFC/donor was 6 SFC/donor and the “% responder” value came out at 5%.
For “142 (DKKFLFNTAVLFDRQ; Immunogenic fragment) [compound 142]”, in that order: 22 SFC/donor and 10%.
